Experimental data reported in patent US11407796B2, “Antisecretory factor 17” (LANTMÄNNEN AS-FAKTOR AB, priority 2016, dated 2022).
Like-named read-outs stand apart in the source and are kept apart here. Ends that are not written are not given here. Peptide text beside a SMILES is read from it. * marks the point of attachment. Succinimide(1-Et,3-yl) = CCN1C(=O)CC(*)C1=O

Legend:
Caco-2 cells = test: AF16 stability and metabolite formation with Caco-2 cells; format: in vitro ADME
Procedure: (§1) Investigation of the fate of AF16 in the presence of Caco-2 cells was performed on three separate occasions. Firstly, a quantitative measurement was performed using MRM methodology (table 1) over 0, 15, 30 and 60 min. Here, AF16 or its possible sulfonic acid metabolite was monitored both in the apical and in the basolateral compartment (not shown). The second experiment was a qualitative determination of the fate of AF16 during a 60 min incubation. 50 μM AF16 in HBSS buffer was incubated at the apical side of the Caco-2 cell monolayer and 100 μl aliquots was extracted at 5, 10, 20, 30 and 60 min. The sample was placed on a 96-well plate containing 100 μl MeCN/H2O. The plate was sealed and frozen until full-scan UPLC-MS analysis (see below and table 2). The third experiment was a mirror of the second and the only difference was that a HBSS solution of AF16:AF16 IS (1:1) was used, to aid in the structure elucidation.
(§2) All samples from the different assays were analyzed by UPLC-MS/MS. The following system was used, a Waters XEVO TQ triple-quadrupole mass spectrometer (electrospray ionization, ESI) coupled to a Waters Acquity UPLC (VVaters Corp.). For chromatographic separation a general gradient was used (1% mobile phase B to 50% over 3 min total run) on a C18 BEH 1.7 μm column 2×100 mm (VVaters Corp.). Mobile phase A consisted of 0.05% TFA and mobile phase B 100% acetonitrile. The flow rate was 0.5 ml/min. In the full-scan MS analysis the same chromatographic settings was used except that 10 μl was injected (full loop). The MS was set to scan for ions in the 100-400 or 400-700 m/z window using the cone voltage in table 1.
(§3) It is well known that in the intestine, and as such at the apical side of Caco-2 cells, brush-border peptidases exist. To further investigate this, a separate experiment was designed. Caco-2 cells were exposed at the apical side to 50 μM AF16, with or without a protease inhibitor cocktail, and were sampled over 1 h.

[1] = AF16 metabolite identification in rat plasma; format: in vitro ADME
Procedure: (§4) (10 μM incubation conc.).
(§5) The flow rate was 0.5 ml/min.
(§6) AF16 and the isotopically labelled peptide in similar quantity were incubated in plasma of rat and human as described above. For analysis of full scan MS data, the metabolite identification software from Sciex, Lightsight, was used, which compares the incubated MS response to the quality control (QC) sample and assigns apparent peaks as metabolites with specific mass over charge (m/z) values. The software is currently not optimal to use with multi-charged compounds such as peptides so the hit-rate of metabolite detection is fairly high and manual assessment of each found peak had to be performed. The largest metabolite peak areas were then rank ordered and in some cases verified by MS/MS fragmentation. Skyline methodology was used to predict fragmentation of the identified peptides, but also aided in creating sensitive MRM methods so that low amounts could be monitored.

[2] = AF16 metabolite identification in human plasma; format: in vitro ADME
Procedure: as §4, §5, §6

[3] = AF16 and AF16-NEM stability in human plasma; format: in vitro ADME; settings: for half-life: 37° C.
Procedure: Test of AF16 and AF16-NEM stability in plasma was performed using pooled human plasma (4 donors, two female+two male) in HPLC glass vials at 37° C. (20 μM incubation conc.). Four different matrices were tested: Plasma: isotonic 67 mM potassium phosphate pH 7.4 (KP) (1:1), plasma:KP+0.1 mM DTT, KP and KP+0.1 mM DTT. Incubation times were 0, 1.5 and 3 h. At the indicated times a 50 μl aliquot was extracted and quenched/precipitated in 150 μl ice-cold methanol and frozen until analysis. Relative quantification was performed UPLC-MS/MS.
AF16, the stable isotope labeled (SIL) AF16 and the alkylated analog AF16-NEM were incubated at 1 μM in human plasma: 0.1M potassium phosphate pH 7.4 (KP) (1:1), human plasma: KP (1:1)+1 mM DTT, KP or KP+1 mM DTT over 3 h at 37° C. to investigate stability. KP was included to provide buffer capacity to the plasma and to not confuse the results with pH related effects.

[4] = Kinetics of AF16 and metabolites in plasma with ZnSO4 precipitant +/-DTT; format: in vitro ADME, human, rat; settings: plasma precipitated with ZnSO4, +/−DTT
From the text: The kinetics shown in FIG. 13 was surprising given the fact that DTT was used in the quenching solution with TCA, although it is likely that the reducing capability of DTT is lowered in acidic conditions. It was therefore tested if the same pattern occurred when using a neutral precipitant ZnSO4 (without NaOH). This precipitation method is not as efficient but would hopefully give more information on the formation of the major disulfide products.

[5] = plasma
[6] = AF16 stability and metabolite formation with Caco-2 cells; format: in vitro ADME; settings: Caco-2, 50 μM, apical side of Caco-2 cells
Procedure: as §1, §2, §3

[7] = 30 min incubation of AF16, (+) inhibitor cocktail
[8] = 30 min incubation of AF16, (−) inhibitor cocktail
[9] = 60 min incubation of AF16, (+) inhibitor cocktail
[10] = 60 min incubation of AF16, (−) inhibitor cocktail
[11] = human plasma:KP (1:1) + DTT, read-out: in vitro half-life (t½) with DTT (converted)
[12] = human plasma:KP pH 7.4 (1:1), no DTT, read-out: in vitro half-life (t½) (converted)

| Tentative amounts (%) of molecular species (Caco-2 cells; [7]) [%] | Tentative amounts (%) of molecular species (Caco-2 cells; [8]) [%] | Tentative amounts (%) of molecular species (Caco-2 cells; [9]) [%] | Tentative amounts (%) of molecular species (Caco-2 cells; [10]) [%] | % of QC area at 30 min incubation time [1] [%] | % of QC area at 30 min incubation time [2] [%] | fold higher stability than AF16 ([3]; human plasma, no DTT) [fold] | half-life [3, 11] [min] | half-life [3, 12] [min] | half-life [5] [min] | half-life ([6]; with protease inhibitor cocktail (Bestatin, Diprotin A, Captopril), read-out: t½ of degradation with inhibitor cocktail) [min] | half-life ([6]; without inhibitor cocktail, read-out: t½ of degradation) [min] | t½ of degradation with inhibitor cocktail (Caco-2 cells; 50 μM, apical side of Caco-2 cells, with protease inhibitor cocktail (Bestatin, Diprotin A, Captopril)) [min] | Compound | resilience of the disulfide against DTT reduction [4] |
| --- | --- | --- | --- | --- | --- | --- | --- | --- | --- | --- | --- | --- | --- | --- |
| 2 | 38 | 4 | 24 | 0.4 | 0.9 | – | – | – | – | – | – | – | CC(C)C[C@H](NC(=O)CNC(=O)[C@@H](NC(=O)[C@H](CC(N)=O)NC(=O)[C@H](CC(N)=O)NC(=O)[C@H](CCC(=O)O)NC(=O)[C@@H]1CCCN1C(=O)[C@H](CC(N)=O)NC(=O)[C@H](CO)NC(=O)[C@H](CCCNC(=N)N)NC(=O)[C@@H](NC(=O)[C@H](CCCCN)NC(=O)[C@H](CO)NC(=O)[C@@H](N)Cc1c[nH]cn1)[C@@H](C)O)C(C)C)C(=O)O [M3, HSK TRSNP ENNVG L] (H-HSKTRSNPENNVGL-OH; N-terminus and C-terminus assumed) | – |
| – | – | – | – | – | – | ~5 | 252 | 108 | – | – | – | – | CCN1C(=O)CC(SC[C@H](NC(=O)[C@@H](N)C(C)C)C(=O)N[C@@H](Cc2c[nH]cn2)C(=O)N[C@@H](CO)C(=O)N[C@@H](CCCCN)C(=O)N[C@H](C(=O)N[C@@H](CCCNC(=N)N)C(=O)N[C@@H](CO)C(=O)N[C@@H](CC(N)=O)C(=O)N2CCC[C@H]2C(=O)N[C@@H](CCC(=O)O)C(=O)N[C@@H](CC(N)=O)C(=O)N[C@@H](CC(N)=O)C(=O)N[C@H](C(=O)NCC(=O)N[C@@H](CC(C)C)C(=O)O)C(C)C)[C@@H](C)O)C1=O (stereo partly shown) [AF16-NEM] (H-VC(Succinimide(1-Et,3-yl))HSKTRSNPENNVGL-OH; N-terminus and C-terminus assumed) | – |
| – | – | – | – | – | – | – | – | – | – | – | – | – | C[SCC]HSKTRSNPENNVGL (not fully specified (N-terminus); printed as C[SCC]HSKTRSNPENNVGL; also: [SCC] on the N-terminal Cys, meaning not given here) [M10] | resilient |
| 79 | 6 | 63 | 1 | 4 | 1 | – | 66 | 24 | ≤ 10 | 57 | 8 | 55 | CC(C)C[C@H](NC(=O)CNC(=O)[C@@H](NC(=O)[C@H](CC(N)=O)NC(=O)[C@H](CC(N)=O)NC(=O)[C@H](CCC(=O)O)NC(=O)[C@@H]1CCCN1C(=O)[C@H](CC(N)=O)NC(=O)[C@H](CO)NC(=O)[C@H](CCCNC(=N)N)NC(=O)[C@@H](NC(=O)[C@H](CCCCN)NC(=O)[C@H](CO)NC(=O)[C@H](Cc1c[nH]cn1)NC(=O)[C@H](CS)NC(=O)[C@@H](N)C(C)C)[C@@H](C)O)C(C)C)C(=O)O [AF16, VCHSKTRSNPENNVGL] (H-VCHSKTRSNPENNVGL-OH; N-terminus and C-terminus assumed) | – |
